Some test systems named below: M19-MEL; RXF 631; LXFL 529; SNB-78; DMS-273; KM-20L2; HOP-18; XF498; DMS-114.
What all share (experiment): DTP human tumour cell line panel, 48 h

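Following 48 hours of exposure in 96-well plates, responses at five concentrations were used to interpolate endpoints linearly. GI50 = concentration required for 50% inhibition of growth.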 Calls of active or inactive are those of the source. No stated cut-off is given here; in the data, active = GI50 up to about 1.1 µM and inactive = higher.

Broadly, the GI50 is the concentration that inhibits growth by half.

Regarding `CC(=O)Nc1ccc(C2CC(c3ccc([N+](=O)[O-])cc3)=Nc3ccccc3S2)cc1` (configuration not stated), the GI50 in the assay with M19-MEL is 18.8 µM (inactive); in the assay with RXF 631, 22.9 µM (inactive); in the assay with LXFL 529, 16.6 µM (inactive); with SNB-78 it was 36.1 µM (inactive); in the assay with DMS-273, 24.4 µM (inactive); in the assay with KM-20L2, 20.2 µM (inactive). In addition, the GI50 in the assay on HOP-18 was 24.3 µM (inactive); in the assay with XF498, 13.3 µM (inactive).

Turning to `CCC1(N=[N+]=[N-])C(=O)c2ccccc2N(c2ccccc2)C1=O` (configuration not stated), the GI50 with M19-MEL, with LXFL 529, in the assay on SNB-78, in the assay on DMS-273, with KM-20L2 and in the assay with HOP-18 was > 100 µM (inactive) in each case. Besides, the GI50 in the assay on XF498 and in the assay with DMS-114 was > 100 µM (inactive) each time.

On to `COC(=O)C1(C(=O)OC)CC2c3c(c4ccccc4n3C)CC(C1=O)N2Cc1ccccc1` (configuration not stated), for which the GI50 in the assay with M19-MEL, in the assay with RXF 631, with LXFL 529, in the assay with SNB-78, with DMS-273 and in the assay with KM-20L2 was > 100 µM (inactive) each time. For the same compound, the GI50 in the assay on XF498 and in the assay on DMS-114 was > 100 µM (inactive) each time.

On to `CCCCCCCCC(C)CCCCCCCCC(=O)OCC(COP(=O)([O-])OCC[N+](C)(C)C)OC(=O)CCCCCCCCC(C)CCCCCCCC` (configuration not stated), for which the GI50 in the assay with M19-MEL, with RXF 631, with LXFL 529, in the assay on SNB-78, with DMS-273 and in the assay on KM-20L2 was > 100 µM (inactive) each time. In addition, the GI50 with HOP-18 and in the assay with DMS-114 was > 100 µM (inactive) throughout.

Consider `Cc1ccc2[nH]c(=O)c(C(C#N)c3ccccc3)nc2c1` (configuration not stated), for which the GI50 in the assay with RXF 631 is 44.1 µM (inactive); with LXFL 529, 32.7 µM (inactive); with SNB-78, 28.1 µM (inactive); in the assay on DMS-273 it was 44.5 µM (inactive); with KM-20L2, 37.2 µM (inactive); in the assay with HOP-18, 24.7 µM (inactive).

Consider `Cc1ccc(NC(=O)CC(=O)n2nc(C)c(/N=N/c3ccccc3C(=O)O)c2C)cc1`, for which the GI50 in the assay with M19-MEL, in the assay with RXF 631, in the assay on LXFL 529, in the assay with SNB-78, with DMS-273 and in the assay with KM-20L2 was > 100 µM (inactive) in each case. Besides, the GI50 in the assay on XF498 and in the assay with DMS-114 was > 100 µM (inactive) each time.

For `Cc1[nH]c2ccccc2c1C1Cc2ccccc2N1C(=O)/C=C/C(=O)O` (configuration not stated), the GI50 was > 100 µM (inactive) with M19-MEL; 18.4 µM (inactive) in the assay on RXF 631; > 100 µM (inactive) in the assay with LXFL 529; > 100 µM (inactive) in the assay on SNB-78; > 100 µM (inactive) in the assay with DMS-273; > 100 µM (inactive) with KM-20L2. Also, the GI50 in the assay with XF498 was 32.4 µM (inactive); with DMS-114, > 100 µM (inactive).

Regarding `O=C(CSc1nnc(-c2ccc(/N=C\c3ccc(Cl)cc3)cc2)o1)Nc1cccc(Cl)c1`, the GI50 in the assay with M19-MEL, with LXFL 529, in the assay on SNB-78, in the assay with DMS-273, in the assay with KM-20L2 and in the assay on HOP-18 was > 100 µM (inactive) throughout. Also, the GI50 in the assay on XF498 and in the assay with DMS-114 was > 100 µM (inactive) in each case.

`S=C(Nc1ccccc1)N(/N=C/C=C/c1ccccc1)c1nnc(-c2ccccc2)c(-c2ccccc2)n1`: the GI50 was 64.9 µM (inactive) in the assay on M19-MEL; 80.7 µM (inactive) in the assay on RXF 631; > 100 µM (inactive) in the assay with SNB-78; 45.5 µM (inactive) with DMS-273; > 100 µM (inactive) with KM-20L2; 61 µM (inactive) in the assay on XF498. The GI50 with DMS-114 is 26.4 µM (inactive).

For the compound `Cc1ccccc1N1C(=O)/C(=C/c2ccc(N(CCC#N)CCC#N)cc2)N=C1c1cc([N+](=O)[O-])ccc1Cl`, the GI50 in the assay with RXF 631 was > 100 µM (inactive); in the assay with LXFL 529, 96.8 µM (inactive); in the assay with SNB-78 it was > 100 µM (inactive); with DMS-273, 78.9 µM (inactive); in the assay on KM-20L2, > 100 µM (inactive); in the assay with HOP-18 it was > 100 µM (inactive). Also, the GI50 in the assay with DMS-114 was > 100 µM (inactive).

Take `Cn1nc(-c2ccccc2)c(C(=O)/C=C/c2ccccc2)c(N2CCOCC2)c1=O`: the GI50 in the assay with M19-MEL is 23.1 µM (inactive); in the assay with LXFL 529 it was 16 µM (inactive); with DMS-273 it was 19.8 µM (inactive); with KM-20L2 it was 18.1 µM (inactive); in the assay with HOP-18, 28.6 µM (inactive); in the assay with XF498, 12.7 µM (inactive). In the assay with DMS-114, the GI50 was 16.8 µM (inactive).

Turning to `CCOC(=O)NC(=O)c1cn(CCN2CCN(C(=O)NCCCCCCNC(=O)N3CCN(CCn4cc(C(=O)NC(=O)OCC)c(=O)n(CCN(CC)CC)c4=O)CC3)CC2)c(=O)n(CCC(CC)CC)c1=O`, the GI50 with M19-MEL, in the assay with LXFL 529, in the assay on SNB-78, in the assay on DMS-273, with KM-20L2 and in the assay on HOP-18 was > 100 µM (inactive) in each case. Besides, in the assay on DMS-114, the GI50 is > 100 µM (inactive).

With `COc1ccc(C2C(Cl)C(=O)N2NC(=O)c2ccc(N)cc2)cc1OC` (configuration not stated), the GI50 was 4.95 µM (inactive) in the assay with M19-MEL; 1.95 µM (inactive) in the assay with LXFL 529; 63.7 µM (inactive) with SNB-78; 2.72 µM (inactive) with DMS-273; 12.1 µM (inactive) with KM-20L2; 1 µM (active) in the assay with XF498.

For the compound `OCC(O)C(O)C(O)C1SC(c2ccccc2)=NN1c1ccccc1` (configuration not stated), the GI50 with M19-MEL was > 100 µM (inactive); in the assay with RXF 631, 49.3 µM (inactive); in the assay on LXFL 529 it was > 95.5 µM (inactive); with SNB-78, 44.4 µM (inactive); in the assay on DMS-273 it was > 76.6 µM (inactive); in the assay with KM-20L2, > 100 µM (inactive). Besides, the GI50 is 51.8 µM (inactive) in the assay on HOP-18, 30.1 µM (inactive) with XF498 and > 84.7 µM (inactive) with DMS-114.

For the compound `CN(C)c1snc2c1c(=O)n(C)c(=O)n2C`, the GI50 with M19-MEL, with RXF 631, with LXFL 529, in the assay on DMS-273, in the assay on KM-20L2 and in the assay on HOP-18 was > 100 µM (inactive) throughout. Besides, the GI50 in the assay on XF498 and in the assay on DMS-114 was > 100 µM (inactive) each time.

Consider `O=[N+]([O-])c1cc(Cl)ccc1OCc1ccccc1`, for which the GI50 in the assay with M19-MEL was 44.3 µM (inactive); with RXF 631, > 100 µM (inactive); with LXFL 529, 41.6 µM (inactive); with SNB-78 it was 32.8 µM (inactive); in the assay with DMS-273, 54.6 µM (inactive); in the assay with XF498, 20.4 µM (inactive). Moreover, the GI50 in the assay with DMS-114 was 29.4 µM (inactive).

For the compound `O=c1c2cc(-c3ccccc3)sc2nc2sc(-c3ccccc3)nn12`, the GI50 with M19-MEL, in the assay with RXF 631, in the assay on LXFL 529, in the assay on SNB-78, with DMS-273 and in the assay with KM-20L2 was > 100 µM (inactive) in each case. Also, the GI50 in the assay with HOP-18, in the assay on XF498 and in the assay on DMS-114 was > 100 µM (inactive) each time.

For `CC(=O)c1cccc(NC(=O)C(=O)C(C2OC(=O)c3ccccc32)[N+](=O)[O-])c1` (configuration not stated), the GI50 in the assay on M19-MEL, in the assay on RXF 631, in the assay with LXFL 529, in the assay with SNB-78, in the assay on KM-20L2 and with XF498 was > 100 µM (inactive) each time. In addition, the GI50 with DMS-114 is > 100 µM (inactive).

In the case of `O=C(O)C(=O)/C=C\c1ccc(Cl)cc1`, the GI50 with M19-MEL, with LXFL 529, in the assay with SNB-78, in the assay on DMS-273, in the assay with KM-20L2 and in the assay on HOP-18 was > 100 µM (inactive) each time. Besides, the values for the GI50 in the assay with XF498 and in the assay with DMS-114 were > 100 µM (inactive) and 84.1 µM (inactive), respectively.

Turning to `OC1c2ccccc2C2C(O)c3ccccc3C12` (configuration not stated), the GI50 in the assay with M19-MEL, in the assay with RXF 631, in the assay on LXFL 529, in the assay with DMS-273, in the assay with KM-20L2 and in the assay on HOP-18 was > 100 µM (inactive) each time. In the assay on DMS-114, the GI50 was > 100 µM (inactive).

For the compound `COc1cc(/C=N/N=C(\N)NO)c([N+](=O)[O-])cc1OC`, the GI50 was 31.9 µM (inactive) with M19-MEL; 26.7 µM (inactive) in the assay with RXF 631; 27 µM (inactive) in the assay on LXFL 529; 76.2 µM (inactive) with SNB-78; 25.9 µM (inactive) with DMS-273; 30.1 µM (inactive) in the assay on KM-20L2. The GI50 with HOP-18 is 21 µM (inactive); in the assay on DMS-114 it was 6.75 µM (inactive).

Turning to `N#Cc1c(N)oc2cc3c(C#N)c(N)oc3cc12`, the GI50 with M19-MEL, in the assay with RXF 631, in the assay with LXFL 529, in the assay with DMS-273, in the assay on KM-20L2 and in the assay with HOP-18 was > 100 µM (inactive) each time. Besides, in the assay on DMS-114, the GI50 is > 100 µM (inactive).

In the case of `CCN(CC)CCCC(C)NC(=O)c1ccc2c(c1)C(=O)c1ccccc1C2=O` (configuration not stated), the GI50 is 16.7 µM (inactive) with M19-MEL; 24.1 µM (inactive) with RXF 631; 24.7 µM (inactive) in the assay with LXFL 529; 22.9 µM (inactive) with SNB-78; 21.9 µM (inactive) in the assay with DMS-273; 18.3 µM (inactive) in the assay on KM-20L2. Also, the GI50 in the assay with HOP-18 is > 85.5 µM (inactive); in the assay with XF498, 16.1 µM (inactive); in the assay on DMS-114 it was 11.4 µM (inactive).

For `O=C(O)CS` [THIOGLYCOLIC ACID], the GI50 in the assay with M19-MEL, in the assay on LXFL 529, with SNB-78, in the assay with DMS-273, in the assay on KM-20L2 and with XF498 was > 100 µM (inactive) each time. Moreover, the GI50 with DMS-114 was > 100 µM (inactive).

Source of the values: ChEMBL document CHEMBL1201862, “PubChem BioAssay data set” (2004).
